# Reference: patent US12338237B2, “Derivatives having 1,2,3,4-tetrahydronaphthalene moiety or pharmaceutically acceptable salt thereof and pharmaceutical compositions comprising the same” (YUHAN CORPORATION, priority 2019, dated 2025)
# Read-outs that look alike come from different tables or passages of the source.
# Legend:
# GM1 production = experiment: cells; format: cell-based
# [1] = target: glucosylceramide synthase (GCS) (Homo sapiens (Human), UniProt Q16739); experiment: Evaluation of inhibitory activities against GCS (enzyme reaction with A549 cell lysate, NBD C6-ceramide, HPLC fluorescence); format: biochemical; details: GCS activity in A549 cell lysate, 37° C. for 90 minutes
# Method in brief: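 Lysate of A549 cells in 50 mM HEPES pH 7.3 incubated with test compound and NBD C6-ceramide at 37 °C for 90 min; lipids extracted with chloroform/methanol and GlcCer and ceramide peaks quantified by HPLC fluorescence. Activity from GlcCer area fraction, normalised between DMSO and ibiglustat controls.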
# Sequence of glucosylceramide synthase (GCS) (Q16739 whole entry, looked up): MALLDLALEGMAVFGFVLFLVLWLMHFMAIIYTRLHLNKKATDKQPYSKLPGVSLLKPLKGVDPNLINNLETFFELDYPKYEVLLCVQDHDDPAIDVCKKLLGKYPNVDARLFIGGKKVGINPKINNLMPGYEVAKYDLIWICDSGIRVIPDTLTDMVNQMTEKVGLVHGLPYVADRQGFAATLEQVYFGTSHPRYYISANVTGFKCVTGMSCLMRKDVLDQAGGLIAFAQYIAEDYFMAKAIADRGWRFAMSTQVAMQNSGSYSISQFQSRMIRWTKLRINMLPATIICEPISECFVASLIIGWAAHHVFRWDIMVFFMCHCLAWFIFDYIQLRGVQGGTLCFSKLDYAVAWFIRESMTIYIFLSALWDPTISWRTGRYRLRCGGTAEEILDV
Compound,IC50 (GM1 production; read-out: IC50) [nM],IC50 [1] [nM],"IC50 (GM1 production; Homo sapiens, Jurkat, 72 h) [nM]"
"COc1ccc(-c2cc3c(cc2F)C(NC(=O)O[C@@H]2CN4CCC2CC4)C(C)(C)CC3)cc1F (stereo partly drawn) [Example 227, (S)-quinuclidin-3-yl (7-fluoro-6-(3-fluoro-4-methoxyphenyll)-2,2-dimethyl-1,2,3,4-tetrahydronaphthalen-1-yl)carbamate]",12.8,0.5,
CCCOc1c(C)cc(-c2cc3c(cc2F)C(NC(=O)O[C@@H]2CN4CCC2CC4)C(C)(C)CC3)cc1C (stereo partly shown) [Example 228],12.5,1.34,
"CCCc1ccc(-c2cc3c(cc2F)C(NC(=O)O[C@@H]2CN4CCC2CC4)C(C)(C)CC3)cc1 (stereo partly drawn) [Example 229, (S)-quinuclidin-3-yl (7-fluoro-2,2-dimethyl-6-(4-propylphenyl)-1,2,3,4-tetrahydronaphthalen-1-yl)carbamate]",,0.31,1.7
"CC(C)Cc1ccc(-c2cc3c(cc2F)C(NC(=O)O[C@@H]2CN4CCC2CC4)C(C)(C)CC3)cc1 (stereo partly drawn) [Example 230, (S)-quinuclidin-3-yl (7-fluoro-6-(4-isobutylphenyl)-2,2-dimethyl-1,2,3,4-tetrahydronaphthalen-1-yl)carbamate]",,0.3,1.8
CC(C)(C)Oc1cc(-c2cc3c(cc2F)C(NC(=O)O[C@@H]2CN4CCC2CC4)C(C)(C)CC3)ccn1 (stereo partly shown) [Example 231],3.8,0.86,
"CC(C)Oc1ccc(-c2cc3c(cc2F)C(NC(=O)O[C@@H]2CN4CCC2CC4)C(C)(C)CC3)cc1 (stereo partly drawn) [Example 232, (S)-quinuclidin-3-yl (7-fluoro-6-(4-isopropoxyphenyl)-2,2-dimethyl-1,2,3,4-tetrahydronaphthalen-1-yl)carbamate]",,0.29,2.7
"COc1ccc(-c2cc3c(cc2OC)C(NC(=O)O[C@@H]2CN4CCC2CC4)C(C)(C)CC3)cc1F (stereo partly drawn) [Example 233, (S)-quinuclidin-3-yl (6-(3-fluoro-4-methoxyphenyl)-7-methoxy-2,2-dimethyl-1,2,3,4-tetrahydronaphthalen-1-yl)carbamate]",,0.65,21.7
"CCCOc1c(C)cc(-c2cc3c(cc2OC)C(NC(=O)O[C@@H]2CN4CCC2CC4)C(C)(C)CC3)cc1C (stereo partly drawn) [Example 234, (S)-quinuclidin-3-yl (6-(3,5-dimethyl-4-propoxyphenyl)-7-methoxy-2,2-dimethyl-1,2,3,4-tetrahydronaphthalen-1-yl)carbamate]",,1.45,14.9
"CCCc1ccc(-c2cc3c(cc2OC)C(NC(=O)O[C@@H]2CN4CCC2CC4)C(C)(C)CC3)cc1 (stereo partly drawn) [Example 235, (S)-quinuclidin-3-yl (7-methoxy-2,2-dimethyl-6-(4-propylphenyl)-1,2,3,4-tetrahydronaphthalen-1-yl)carbamate]",,0.19,3.2
"COc1cc2c(cc1-c1ccc(CC(C)C)cc1)CCC(C)(C)C2NC(=O)O[C@@H]1CN2CCC1CC2 (stereo partly drawn) [Example 236, (S)-quinuclidin-3-yl (6-(4-isobutylphenyl)-7-methoxy-2,2-dimethyl-1,2,3,4-tetrahydronaphthalen-1-yl)carbamate]",,0.53,3.2
"COc1cc2c(cc1-c1ccnc(OC(C)(C)C)c1)CCC(C)(C)C2NC(=O)O[C@@H]1CN2CCC1CC2 (stereo partly drawn) [Example 237, (S)-quinuclidin-3-yl (6-(2-(tert-butoxy)pyridin-4-yl)-7-methoxy-2,2-dimethyl-1,2,3,4-tetrahydronaphthalen-1-yl)carbamate]",,1.84,18.8
"COc1cc2c(cc1-c1ccc(OC(C)C)cc1)CCC(C)(C)C2NC(=O)O[C@@H]1CN2CCC1CC2 (stereo partly drawn) [Example 238, (S)-quinuclidin-3-yl (6-(4-isopropoxyphenyl)-7-methoxy-2,2-dimethyl-1,2,3,4-tetrahydronaphthalen-1-yl)carbamate]",,0.55,3.5
"(S)-quinuclidin-3-yl (2,2-dimethyl-7-(2-(p-tolyl)-1,2,3,4-tetrahydronaphthalen-1-yl)carbamate [Example 163]",55.1,15.3,
"(S)-quinuclidin-3-yl (7-(3-(chlorophenyl)-1,2,3,4-tetrahydronaphthalen-1-yl)carbamate [Example 59]",153,18.9,
